The subject of test [1] is GM1 production in Jurkat cells. The experiment in a line: cells. It is filed as cell-based. The settings on record: Homo sapiens, Jurkat, 72 h.
Test [2] has as its target T1, glucosylceramide synthase (GCS) (Homo sapiens, UniProt Q16739).
T1 construct: The obtained supernatant was used; host or cells: A549 cells (lysate supernatant after sonication)
T1 sequence (Q16739 1-394): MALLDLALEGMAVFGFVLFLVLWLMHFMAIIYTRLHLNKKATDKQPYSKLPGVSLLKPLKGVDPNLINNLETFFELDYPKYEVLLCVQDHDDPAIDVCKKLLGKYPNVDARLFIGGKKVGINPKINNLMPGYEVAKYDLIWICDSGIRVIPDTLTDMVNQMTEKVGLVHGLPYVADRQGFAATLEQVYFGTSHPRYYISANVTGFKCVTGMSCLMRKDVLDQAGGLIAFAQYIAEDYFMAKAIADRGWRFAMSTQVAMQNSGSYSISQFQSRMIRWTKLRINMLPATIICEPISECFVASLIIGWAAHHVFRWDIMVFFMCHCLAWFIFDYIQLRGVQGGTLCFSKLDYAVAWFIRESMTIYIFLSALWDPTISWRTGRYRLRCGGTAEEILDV
In words: GCS enzyme inhibition assay (A549 cell lysate, NBD C6-ceramide, HPLC fluorescence). It is filed as biochemical. Conditions: inhibitory activity against GCS, 37° C., 90 minutes. The procedure, abridged: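 A549 cell lysate (50 mM HEPES pH 7.3) served as GCS source; reactions ran 90 min at 37° C, were stopped with chloroform/methanol and lipids extracted. Activity taken as GlcCer/(Cer+GlcCer) peak area, normalised between DMSO and ibiglustat controls.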

pIC50: −log10 of the molar value.

The pIC50 is −log10 of the IC50, conventionally taken in molar units. Read a low pIC50 as a large IC50.

Take `COc1ccc(-c2ccc3c(c2)OCC(C)(C)C3NC(=O)O[C@@H]2CN3CCC2CC3)cn1` (stereo partly drawn) [Example 241, (S)-quinuclidin-3-yl (7-(6-methoxypyridin-3-yl)-3,3-dimethylchroman-4-yl)carbamate]: the figures for the pIC50 in test [1] and in test [2] were 7.62 and 9.09, respectively.
`CC1(C)COc2cc(-c3ccc(-c4ccccc4)cc3)ccc2C1NC(=O)O[C@@H]1CN2CCC1CC2` (stereo partly drawn) [Example 242, (S)-quinuclidin-3-yl (7-([1,1′-biphenyl]-4-yl)-3,3-dimethylchroman-4-yl)carbamate]: the values for the pIC50 in test [1] and in test [2] were 8.42 and 9.28, respectively.
Turning to `CC1(C)COc2cc(-c3cncs3)ccc2C1NC(=O)O[C@@H]1CN2CCC1CC2` (stereo partly drawn) [Example 243, (S)-quinuclidin-3-yl (3,3-dimethyl-7-(thiazol-5-yl)chroman-4-yl)carbamate], the pIC50 in test [1] was 7.62; in test [2], 8.72.
With `C=Cc1cccc(-c2ccc3c(c2)OCC(C)(C)C3NC(=O)O[C@@H]2CN3CCC2CC3)c1` (stereo partly drawn) [Example 244, (S)-quinuclidin-3-yl (3,3-dimethyl-7-(3-vinylphenyl)chroman-4-yl)carbamate], the pIC50 in test [1] was 9.22; in test [2], 9.38.
The like results for `COc1ncccc1-c1ccc2c(c1)OCC(C)(C)C2NC(=O)O[C@@H]1CN2CCC1CC2` (stereo partly drawn) [Example 245, (S)-quinuclidin-3-yl (7-(2-methoxypyridin-3-yl)-3,3-dimethylchroman-4-yl)carbamate] were, in that order, 8.33 and 9.02.
With `COc1cccc(-c2ccc3c(c2)OCC(C)(C)C3NC(=O)O[C@@H]2CN3CCC2CC3)n1` (stereo partly drawn) [Example 246, (S)-quinuclidin-3-yl (7-(6-methoxypyridin-2-yl)-3,3-dimethylchroman-4-yl)carbamate], the pIC50 in test [1] was 8.89; in test [2], 9.12.
On to `CC1(C)COc2cc(-c3ccc(C#N)cc3)ccc2C1NC(=O)O[C@@H]1CN2CCC1CC2` (stereo partly drawn) [Example 247, (S)-quinuclidin-3-yl (7-(4-cyanophenyl)-3,3-dimethylchroman-4-yl)carbamate], for which the values for the pIC50 in test [1] and in test [2] were 7.97 and 9.24, respectively.
The like results for `Cc1ccc(-c2ccc3c(c2)OCC(C)(C)C3NC(=O)O[C@@H]2CN3CCC2CC3)c(F)n1` (stereo partly drawn) [Example 248, (S)-quinuclidin-3-yl (7-(2-fluoro-6-methylpyridin-3-yl)-3,3-dimethylchroman-4-yl)carbamate] were, in that order, 7.53 and 9.07.
Take `CC1(C)COc2cc(-c3ccc4c(c3)OCO4)ccc2C1NC(=O)O[C@@H]1CN2CCC1CC2` (stereo partly drawn) [Example 249, (S)-quinuclidin-3-yl (7-(benzo[d][1,3]dioxol-5-yl)-3,3-dimethylchroman-4-yl)carbamate]: the pIC50 in test [1] was 8.40; in test [2] it was 9.41.
Regarding `CC1(C)COc2cc(-c3ccc(C4CC4)nc3)ccc2C1NC(=O)O[C@@H]1CN2CCC1CC2` (stereo partly drawn) [Example 250, (S)-quinuclidin-3-yl (7-(6-cyclopropylpyridin-3-yl)-3,3-dimethylchroman-4-yl)carbamate], the pIC50 in test [1] was 8.27; in test [2] it was 9.46.
As for `CN(C)c1ccc(-c2ccc3c(c2)OCC(C)(C)C3NC(=O)O[C@@H]2CN3CCC2CC3)cn1` (stereo partly drawn) [Example 251, (S)-quinuclidin-3-yl (7-(6-(dimethylamino)pyridin-3-yl)-3,3-dimethylchroman-4-yl)carbamate], the pIC50 is 7.76 in test [1] and 8.79 in test [2].
`COc1ccc(F)cc1-c1ccc2c(c1)OCC(C)(C)C2NC(=O)O[C@@H]1CN2CCC1CC2` (stereo partly drawn) [Example 252, (S)-quinuclidin-3-yl (7-(5-fluoro-2-methoxyphenyl)-3,3-dimethylchroman-4-yl)carbamate]: the pIC50 in test [1] was 8.85; in test [2], 9.27.
The corresponding values for `CCOc1ccc(-c2ccc3c(c2)OCC(C)(C)C3NC(=O)O[C@@H]2CN3CCC2CC3)cn1` (stereo partly drawn) [Example 253, (S)-quinuclidin-3-yl (7-(6-ethoxypyridin-3-yl)-3,3-dimethylchroman-4-yl)carbamate] are 8.19 and 9.12.
Regarding `COc1ncc(-c2ccc3c(c2)OCC(C)(C)C3NC(=O)O[C@@H]2CN3CCC2CC3)cc1C` (stereo partly drawn) [Example 254, (S)-quinuclidin-3-yl (7-(6-methoxy-5-methylpyridin-3-yl)-3,3-dimethylchroman-4-yl)carbamate], the pIC50 in test [1] was 7.76; in test [2], 8.77.
On to `COc1c(C)cc(-c2ccc3c(c2)OCC(C)(C)C3NC(=O)O[C@@H]2CN3CCC2CC3)cc1C` (stereo partly drawn) [Example 255, (S)-quinuclidin-3-yl (7-(4-methoxy-3,5-dimethylphenyl)-3,3-dimethylchroman-4-yl)carbamate], for which the pIC50 in test [1] was 8.29; in test [2], 8.92.
Turning to `CCCCc1ccc(-c2ccc3c(c2)OCC(C)(C)C3NC(=O)O[C@@H]2CN3CCC2CC3)cc1` (stereo partly drawn) [Example 256, (S)-quinuclidin-3-yl (7-(4-butylphenyl)-3,3-dimethylchroman-4-yl)carbamate], the pIC50 in test [1] was 9.70; in test [2], 9.41.
For the compound `CC(C)Cc1ccc(-c2ccc3c(c2)OCC(C)(C)C3NC(=O)O[C@@H]2CN3CCC2CC3)cc1` (stereo partly drawn) [Example 257, (S)-quinuclidin-3-yl (7-(4-isobutylphenyl)-3,3-dimethylchroman-4-yl)carbamate], the pIC50 in test [1] is 9.15; in test [2], 9.44.
The corresponding values for `CC(C)Oc1ccc(-c2ccc3c(c2)OCC(C)(C)C3NC(=O)O[C@@H]2CN3CCC2CC3)cn1` (stereo partly drawn) [Example 258, (S)-quinuclidin-3-yl (7-(6-isopropoxypyridin-3-yl)-3,3-dimethylchroman-4-yl)carbamate] are 9.00 and 9.35.
The corresponding values for `CC1(C)COc2cc(-c3ccc(-c4ccon4)cc3)ccc2C1NC(=O)O[C@@H]1CN2CCC1CC2` (stereo partly drawn) [Example 259, (S)-quinuclidin-3-yl (7-(4-(isoxazol-3-yl)phenyl)-3,3-dimethylchroman-4-yl)carbamate] are 8.16 and 8.94.
`CC(C)COc1ccc(-c2ccc3c(c2)OCC(C)(C)C3NC(=O)O[C@@H]2CN3CCC2CC3)cc1` (stereo partly drawn) [Example 260, (S)-quinuclidin-3-yl (7-(4-isobutoxyphenyl)-3,3-dimethylchroman-4-yl)carbamate]: the pIC50 in test [1] is 9.52; in test [2], 9.29.
For the compound `CC(C)Oc1ccc(-c2ccc3c(c2)OCC(C)(C)C3NC(=O)O[C@@H]2CN3CCC2CC3)cc1F` (stereo partly drawn) [Example 261, (S)-quinuclidin-3-yl (7-(3-fluoro-4-isopropoxyphenyl)-3,3-dimethylchroman-4-yl)carbamate], the pIC50 in test [1] is 8.59; in test [2], 9.19.
The like results for `CC1(C)COc2cc(-c3ccc(C(F)(F)F)cc3F)ccc2C1NC(=O)O[C@@H]1CN2CCC1CC2` (stereo partly drawn) [Example 262, (S)-quinuclidin-3-yl (7-(2-fluoro-4-(trifluoromethyl)phenyl)-3,3-dimethylchroman-4-yl)carbamate] were, in that order, 8.43 and 9.28.
Regarding `Cc1cc(-c2ccc3c(c2)OCC(C)(C)C3NC(=O)O[C@@H]2CN3CCC2CC3)cc(C)c1OC(C)C` (stereo partly drawn) [Example 263, (S)-quinuclidin-3-yl (7-(4-isopropoxy-3,5-dimethylphenyl)-3,3-dimethylchroman-4-yl)carbamate], the pIC50 in test [1] is 8.40; in test [2], 8.84.
Consider `CC1(C)COc2cc(-c3ccccc3)ccc2C1NC(=O)O[C@@H]1CN2CCC1CC2` (stereo partly drawn) [Example 264, (S)-quinuclidin-3-yl (3,3-dimethyl-7-phenylchroman-4-yl)carbamate], for which the results for the pIC50 in test [1] and in test [2] were 9.15 and 9.46, respectively.
The like results for `CC1(C)COc2cc(-c3cccnc3)ccc2C1NC(=O)O[C@@H]1CN2CCC1CC2` (stereo partly drawn) [Example 265, (S)-quinuclidin-3-yl (3,3-dimethyl-7-(pyridin-3-yl)chroman-4-yl)carbamate] were, in that order, 7.41 and 8.69.
For `CC1(C)COc2cc(-c3ccccn3)ccc2C1NC(=O)O[C@@H]1CN2CCC1CC2` (stereo partly drawn) [Example 266, (S)-quinuclidin-3-yl (3,3-dimethyl-7-(pyridin-2-yl)chroman-4-yl)carbamate], the pIC50 in test [1] is 7.57; in test [2], 8.39.
`CC1(C)COc2cc(Cc3ccccc3)ccc2C1NC(=O)O[C@@H]1CN2CCC1CC2` (stereo partly drawn) [Example 267, (S)-quinuclidin-3-yl (7-benzyl-3,3-dimethylchroman-4-yl)carbamate]: the pIC50 is 8.04 in test [1] and 8.83 in test [2].
As to `Cc1cccc(-c2ccc3c(c2)OCC(C)(C)C3NC(=O)O[C@@H]2CN3CCC2CC3)c1` (stereo partly drawn) [Example 268, (S)-quinuclidin-3-yl (3,3-dimethyl-7-(m-tolyl)chroman-4-yl)carbamate], the pIC50 was 8.85 in test [1] and 9.21 in test [2].
The like results for `Cc1ccc(-c2ccc3c(c2)OCC(C)(C)C3NC(=O)O[C@@H]2CN3CCC2CC3)cc1` (stereo partly drawn) [Example 269, (S)-quinuclidin-3-yl (3,3-dimethyl-7-(p-tolyl)chroman-4-yl)carbamate] were, in that order, 8.72 and 9.18.
Take `Cc1ccccc1-c1ccc2c(c1)OCC(C)(C)C2NC(=O)O[C@@H]1CN2CCC1CC2` (stereo partly drawn) [Example 270, (S)-quinuclidin-3-yl (3,3-dimethyl-7-(o-tolyl)chroman-4-yl)carbamate]: the pIC50 in test [1] is 9.00; in test [2], 9.11.

Values taken from patent US12673944B2, “Compounds having inhibitory activity against glucosylceramide synthase or pharmaceutically acceptable salt thereof, processes for preparing the same, and pharmaceutical compositions comprising the same” (YUHAN CORPORATION, priority 2019, dated 2026).
